Data as given in patent US8772235B2, “Compounds having peptides conjugated to bone targeting moieties and methods of making and using thereof” (The Governors of the University of Alberta, priority 2009, dated 2014).

Key:
[1] = Effect on plasma phosphate level in normal rats (PEG series); assay type: in vivo, rat; settings: 20 IU sCT/kg equivalent, subcutaneous
Experimental: Pharmacodynamic response of sCT analogue was evaluated by analyzing plasma calcium concentration in the rat model. Sprague Dawley female rats weighing 230-260 g (about 6 weeks old) were purchased from Charles River, USA and housed at the University of Alberta Animal Holding Unit. All experimental protocols were approved by the Animals Ethics Committee of the University of Alberta. The rats were divided randomly into five groups of 3 animals each and the pharmacodynamic response was assessed following subcutaneous administration of the sCT or analogue equivalent to 20 IU sCT/kg body weight. Rats were anesthetized using Isoflurane inhalation anesthesia and the 200 μl blood samples were obtained in heparinized Eppendorf microtubes before drug injection. Then 100 μl of sCT or equivalent dose in 20 mM Sodium Acetate buffer pH 5 was injected and the blood samples were collected 1, 2, 3 and 4 hrs post injection from jugular vein. Blood plasma was obtained by centrifuging the samples at 5000 rpm for 10 min and collecting the supernatant. Plasma calcium level was assayed by QuantiChrom™ Calcium Assay Kit (BioAssay Systems, CA USA) and the plasma phosphate level was assayed by QuantiChrom™ Phosphate Assay Kit (BioAssay Systems, CA USA).

[2] = Bone mineral specificity: calcium pyrophosphate binding assay; settings: 1 h, 100 mM phosphate buffer pH 7
Experimental: (§1) Bone targeting potential of sCT analogue was evaluated by determining the effect of sCT modification (due to chemical coupling) upon its bone mineral affinity. Specific volume of purified sCT analogue solution containing 10 μg of sCT was mixed with 1 mg Hydroxyapatite (HA) in 150 μL 100 mM phosphate buffer (pH 7.0) in microcentrifuge tubes in duplicate to give a final concentration of 66.67 μg/ml sCT. As a reference, control samples were incubated in tubes without HA (i.e., 0% of binding).
(§2) The tubes were incubated at room temperature on a shaker for 1 h, and centrifuged at 5000 g for 5 minutes to separate the HA from the supernatant. sCT concentration in the supernatant was determined using the BCA microprotein assay (Pierce, USA) as described above. HA centrifugate remaining after removal of supernatant was washed five times using 1 mL buffer each time and the last washing after centrifugation at 5000 g for 5 minutes was collected. Both the washings and the HA centrifugate were then analyzed for sCT as described above. The amount of sCT in the supernatant, washings and HA centrifugate was then inferred by measuring the absorbance at 562 nm, with a value of 100% for control samples without HA.
(§3) Bone mineral specificity of sCT analogue was then determined in the above manner using HA, calcium carbonate, calcium pyrophosphate, tricalcium phosphate and calcium oxalate.

[3] = system: RAW 264.7 cells; assay: MTT cytotoxicity on osteoclast precursor RAW 264.7 cells (SMCC series); assay type: cell-based; settings: 100, 500 and 1000 nM sCT or equivalent, 4 hrs
Experimental: RAW 264.7 cells (ATCC VA, USA) were seeded on 96 well plates at an initial density of 2×10^4 cells/well and incubated in 200 μl GIBCO High Glucose 1× Dulbecco's Modified Eagle Medium (DMEM) (Invitrogen CA, USA) supplemented with 4.5 g/L D-Glucose, L-Glutamine, 110 mg/L Sodium Pyruvate, 10% heat inactivated fetal bovine serum (FBS) and 1% Penicillin-Streptomycin (10000 U/mL; Invitrogen) in a Thermo Fisher Scientific Water Jacketed CO2 incubator (37° C., 5% CO2).
After 72 hrs, media was replaced by 200 μl basic DMEM media without FBS and incubated for 30 minutes. […] After removing the supernatant and washing twice with phosphate buffer saline, purple formazan crystals formed were dissolved in 200 μl solubilization solution (in vitro toxicology assay kit, # TOX-1, Sigma Aldrich, St. Louis, USA) and the absorbance was measured at 570 nm using microplate reader. Experiment was performed for n=8 and the absorbance of wells containing cells without sCT treatment was considered as 100% viable and used to calculate the relative viability of sCT treated cells.
In MTT assay, mitochondrial dehydrogenases of viable cells cleave the tetrazolium ring of MTT yielding purple formazan crystals which are insoluble in aqueous solutions. They were dissolved in acidified isopropanol and the resulting purple solution was measured spectrophotometrically. […]

[4] = ELISA: anti-calcitonin antibody epitope and bone calcium binding on calcium phosphate coated plate (SMCC series); settings: 1 μg/well, OD 650 nm
Experimental: sCT or sCT analogues equivalent to 1 μg/well were added in Calcium Phosphate coated Osteoclast Activity Assay Substrate plate (OCT USA, Inc.) in duplicate and the binding of BP to the calcium phosphate was allowed for 1 hours in the presence of 100 μl 100 mM Sodium Phosphate buffer pH 7. Plates were then washed three times with the same buffer containing 0.05% v/v Tween 80 (PBST). To avoid nonspecific binding, the wells were incubated with 3% w/v Bovine Serum Albumin for 1 h at room temperature. After washings, the wells were incubated with 100 μl of 1:5000 diluted rabbit anti-salmon calcitonin primary antibodies (US Biologicals, USA) for 1 h at room temperature. The wells were then washed three times with PBST and the bound antibodies were then incubated with secondary antibody, 1:5000 diluted goat anti-rabbit IgG conjugated with horseradish peroxidase (GAM-HRPO), for 1 h at room temperature. After final washings, 100 μl of 3,3′,5,5′-tetramethylbenzidine (TMB substrate) was added to each well and incubated for 15 min at room temperature. The optical density (OD) was measured at 650 nm using an ELISA Vmax kinetic microplate reader (Molecular Devices Corp., California, and USA).

[5] = Bone mineral specificity: tri-calcium phosphate binding assay; settings: 1 h, 100 mM phosphate buffer pH 7
Experimental: as §1, §2, §3

[6] = Bone mineral specificity: calcium oxalate binding assay; settings: 1 h, 100 mM phosphate buffer pH 7
Experimental: as §1, §2, §3

[7] = Circular dichroism, secondary structure of sCT, sCT-PEG and sCT-PEG-BP; assay type: physicochemical; settings: 20 mM acetate buffer pH 5.0, ~400 μg/mL sCT or equivalent
Experimental: For a more detailed analysis of the influence of structural alteration of sCT on secondary structure of sCT analogue, the circular dichroism (CD) spectrum of sCT, sCT-PEG and sCT-PEG-BP was measured in the 20 mM acetate buffer pH 5.0. CD spectra were obtained with a ConvCD spectrophotometer instrument. Spectra were acquired over a wavelength range of 190 to 260 nm. The N2 flow rate was set at 5 l/min. The sample cuvette (100 μL) was cleaned with 20 mM Sodium Acetate buffer pH 5, and the spectra of test samples, which comprised of ˜400 μg/mL of sCT or equivalent the same buffer, were recorded with the corresponding buffer serving as blanks.

Salmon calcitonin [sCT, reference compound]
percentage of plasma phosphate reduction ([1]; 4 hour post dosing): 15.7±3.7%
percentage of plasma phosphate reduction ([1]; first hour, vs acetate buffer controls): 22.1±6.24%
percentage of plasma phosphate reduction ([1]; second hour): 22.7±13.01%
sCT recovered in supernatant after incubation with Calcium Pyrophosphate [2]: did not significantly reduce the sCT concentration in the supernatant
cytotoxicity (absorbance of formazan solution) compared to untreated media [3]: low levels of cytotoxicity
detection in ELISA after binding to calcium phosphate plate [4]: not significantly detected
sCT bound to Tri-Calcium Phosphate [5]: no significant difference in the affinity
sCT recovered in supernatant after incubation with Calcium oxalate [6]: did not significantly reduce the sCT concentration in the supernatant
secondary structure by CD spectrum [7]: random coil conformation
